Several values for one entry are separate records, joined by “and”; a condition that tells them apart may be missing. Identical values can stand only once. Counter-ions that a name gives are not always drawn.

For one test, the system named is ICR mouse. The test can be described thus: Passive avoidance test in scopolamine-treated mice. It is filed as in vivo. The note with it: Donepezil 1 mg/kg oral; scopolamine i.p.; mean ± standard error; hydrochloride. Here is the method:
Each material prepared in the preparation example was prepared so that each may be orally administered to 7 experimental groups in the following and Table 1.
In the following Table 1, only the excipient prepared in the preparation examples was orally administered to a normal control group and a negative control group, respectively, scopolamine was administered to the remaining experimental groups (G2-G7) other than the normal control group (G1) in the behavioral experiment of Test Example 4 to cause cognitive function decline and a memory impairment effect, and then the behavior was observed.
After the test material (drug) of Test Example 3 was administered to each experimental group during the test, a passive avoidance test was performed, and change in mouse behavior was observed.
After each of the test materials was administered to each experimental group of Table 1 of Test Example 3, the passive avoidance test was performed on day 25 by the following procedure: • a) The object was put into an unlit white room of a conditioning box for the passive avoidance test, and then was adapted for 60 seconds. • b) A guillotine door was opened simultaneously with turning on a LED light of the white room, and the object was allowed to explore a dark room for 180 seconds for adaptation. • c) On the next day (day 26) also, the above process was performed and repeated once more, and the object was adapted so that it took around 30 seconds to enter the dark room after turning on the LED light. • d) After administering the drug 1 hour before learning on day 27, 4 mL/kg of Scopolamine which was dissolved at 0.25 mg/mL in a 0.9% saline solution was intraperitoneally administered to the objects of the remaining experimental groups other than the normal control group (G1), respectively, after 30 minutes, and the objects were allowed to stand for 30 minutes in the breeding box. • e) 30 minutes after administering Scopolamine, the objects were put into the unlit white room, the guillotine door was opened simultaneously with turning on the LED light after 10 seconds. When all of the four legs of the objects entered to the dark room, the guillotine door was closed, the time spent (latency time) was measured with a timer, and electrical stimulation was given at 0.5 mA for 3 seconds.

The test system of a further test is acetylcholine. The test can be described thus: Acetylcholine content in hippocampus after passive avoidance test. It is filed as in vivo, mouse. The following applies: Donepezil 1 mg/kg oral, scopolamine, mean ± standard error, hydrochloride. How it is done: (§1) On the next day of the end of the passive avoidance test, the test material was administered, and the objects were allowed to stand in a home cage for 30 minutes. Subsequently, Scopolamine was intraperitoneally administered at a dose of 1 mg/kg, and then the objects were allowed to stand in a home cage for 30 minutes.
(§2) A brain tissue was separately separated and stored at −70° C. until analysis.
A choline assay buffer (Biovision, CA, USA) was added to a hippocampal tissue of the separated brain, crushed, and then centrifuged to obtain a supernatant liquid, which was used in the test.
The amount of acetylcholine in the supernatant liquid was measured using a choline/acetylcholine quantification kit (Biovision, CA, USA).

A further test relates to IL-1β. The test can be described thus: Inflammatory cytokine IL-1β in hippocampus (ELISA). It is filed as in vivo, mouse. The note with it: Donepezil 1 mg/kg oral, scopolamine, mean ± standard error, hydrochloride. How it is done: as §1, §2
(§3) Inflammatory cytokine in a brain tissue was measured with a supernatant liquid obtained by adding a tissue protein extraction reagent (Biovision, CA, USA) to a brain tissue, crushing it, and centrifuging it, using an ELISA Kit (R&D System, MN, USA).
For orientation: In an ELISA, binding on a coated surface is turned into a signal by an enzyme label.

Another test relates to TNF-α. The test can be described thus: Inflammatory cytokine TNF-α in hippocampus (ELISA). The test is classed as in vivo, mouse. The following applies: Donepezil 1 mg/kg oral, scopolamine, mean ± standard error, hydrochloride. How it is done:
as §1, §2, §3

Consider `COc1cc2c(cc1OC)C(=O)C(CC1CCN(Cc3ccccc3)CC1)C2` (stereo not shown) [Donepezil, Donepezil hydrochloride, reference compound], for which, in the test on ICR mouse, the “Passive avoidance test Time taken (latency time)” value is 45.6 s and 45.6 ± 14 s. Also, in the test with acetylcholine, the Acetylcholine is 1.8 Nmol/mg protein and 1.8 ± 0.2 Nmol/mg protein. Besides, the IL-1β with IL-1β is 160.9 pg/mg tissue protein and 160.9 ± 23.2 pg/mg tissue protein. Also, in the test with TNF-α, the TNF-α was 186.2 pg/mg tissue protein and 186.2 ± 30.3 pg/mg tissue protein.

The values are drawn from patent publication US20240024261A1, “PHARMACEUTICAL COMPOSITION FOR IMPROVING COGNITIVE ABILITY OR ENHANCING MEMORY” (DR. RAYMOND LAB INC, priority 2020, published 2024).
